Experiments:
LOXL2 = molecular target: T1, LOXL2 (Homo sapiens, UniProt Q9Y4K0); test: In vitro crosslinking assay; format: biochemical; parameters: purchased R&D Systems; settings: 200 nmol/L PXS-5153A, 20 nmol/L rhLOXL2 daily for 5 days, crosslinks on day 7
T1 sequence (Q9Y4K0 26-774): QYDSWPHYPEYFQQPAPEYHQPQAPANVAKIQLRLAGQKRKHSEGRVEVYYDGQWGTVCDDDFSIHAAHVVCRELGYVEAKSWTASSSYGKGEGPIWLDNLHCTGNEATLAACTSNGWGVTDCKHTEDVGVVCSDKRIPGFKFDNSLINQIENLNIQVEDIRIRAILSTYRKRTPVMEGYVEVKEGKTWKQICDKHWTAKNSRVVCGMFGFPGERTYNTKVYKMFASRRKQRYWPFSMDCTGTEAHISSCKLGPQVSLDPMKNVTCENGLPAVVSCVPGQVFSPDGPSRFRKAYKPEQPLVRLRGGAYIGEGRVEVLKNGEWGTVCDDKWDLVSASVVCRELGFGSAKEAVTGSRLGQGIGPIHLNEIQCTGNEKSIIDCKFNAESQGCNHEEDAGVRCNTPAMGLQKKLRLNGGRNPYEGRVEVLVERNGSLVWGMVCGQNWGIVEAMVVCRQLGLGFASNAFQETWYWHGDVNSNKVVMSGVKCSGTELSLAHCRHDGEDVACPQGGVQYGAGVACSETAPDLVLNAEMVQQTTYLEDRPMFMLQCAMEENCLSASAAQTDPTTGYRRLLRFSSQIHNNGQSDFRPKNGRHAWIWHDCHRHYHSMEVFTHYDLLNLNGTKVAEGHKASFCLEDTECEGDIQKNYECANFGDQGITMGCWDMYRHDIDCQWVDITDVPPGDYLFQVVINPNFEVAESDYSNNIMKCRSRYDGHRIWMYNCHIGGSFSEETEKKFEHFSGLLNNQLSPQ
Procedure: About 200 μL of 3 mg/mL collagen (rat tail, type I, Thermo Fisher) was combined with 800 μL of 50 mmol/L sodium borate buffer (pH 8.2) and 20 nmol/L of rhLOXL2 (with or without inhibitor, PXS‐5153A 200 nmol/L). Enzyme/inhibitor were replenished daily for 5 days. Samples were incubated at 37°C and crosslinks were extracted on day 7.
About 10mg of freeze‐dried samples were reduced with NaBH4. Pellet then underwent acid hydrolysis in 6 mol/L HCl at 100°C for 24 hours. Hydroxyproline and crosslinks were extracted from the hydrolysate using an automated solid phase extraction system (Gilson GX‐271 ASPECA system). After extraction and drying, hydroxyproline and crosslinks were analysed by UHPLC‐ESI‐MS/MS on a Thermo Dionex UHPLC and TSQ Endura triple quad mass spectrometer. Total protein was quantified in the samples using a commercially available kit (QuickZyme Biosciences, Leiden, The Netherlands). For detailed procedures, see supporting information.

Native human LOX = molecular target: T2, Native human LOX (Homo sapiens, UniProt P28300); test: Amplex-Red fluorometric enzymatic activity assay, native human LOX (IMR90 conditioned medium); format: biochemical; settings: 30 minute pre-incubation; average of at least three experiments
T2 construct: collecting the 30-kDa LOX in the lower molecular weight portion; host or cells: IMR90 conditioned medium
Procedure: (§1) The measurement of the enzymatic activity of all lysyl oxidase family members was based on the detection of hydrogen peroxide with an Amplex‐Red oxidation assay, as described in Zhou et al26 Recombinant human semicarbazide sensitive amine oxidase (SSAO/VAP1), diamine oxidase (DAO) and monoamine oxidases A and B (MAO‐A and MAO‐B) assays were performed as previously described.27 For detailed enzymatic procedures, see supporting information.
(§2) The measurement of the enzymatic activity of all lysyl oxidase family members was based on the detection of hydrogen peroxide with an Amplex-Red oxidation assay, as described in Zhou et al.[1]; miniaturised in 384 well format, with the appropriate combination of substrate and assay buffer for each individual enzyme. After a 30 minute pre-incubation of the enzyme at 37 °C with the test compound (or with different incubation times for the time-dependency assay), one volume of reaction mixture containing 120 μM Amplex Red (AR) (Life Technologies), 1.5 U/mL horseradish peroxidase (HRP) (Sigma-Aldrich) and the specific substrate was added to each sample. The relative fluorescence units (RFU) were then measured every 2.5 minutes for 30 minutes at 37°C, excitation 565 nm and emission 590, on a BMG Clariostar Microplate Reader. […]

[1] = molecular target: Nicotinic Acetylcholine α1, Bungarotoxin (Homo sapiens, UniProt P02708+P07510+Q07001); test: Eurofins Hit Profiling Screen; format: binding; settings: 10 μmol/L
Potassium Channel [KATP] = Potassium Channel [KATP] (Cricetus cricetus, UniProt Q09427); test: Eurofins Hit Profiling Screen; format: binding; settings: 10 μmol/L
Procedure: PXS‐5153A was tested at Eurofins Cerep Panlabs Taiwan, Ltd in the “Hit Profiling Screen”, which tested 30 different targets.
Eurofins Hit Profiling Screen, was performed to evaluate the off -target profile of PXS-5153A. Biochemical assay results are presented as the percent inhibition of specific binding or activity.

Adrenergic β2 = Adrenergic β2 (Homo sapiens, UniProt P07550); test: Eurofins Hit Profiling Screen; format: binding; settings: 10 μmol/L
Recombinant human LOXL1 = molecular target: T3, Recombinant human LOXL1 (Homo sapiens, UniProt Q08397); test: Amplex-Red fluorometric enzymatic activity assay, recombinant human LOXL1; format: biochemical; settings: 30 minute pre-incubation; average of at least three experiments
T3 construct: made in house
Procedure: as §1, §2

Nicotinic Acetylcholine = test: Eurofins Hit Profiling Screen; format: binding; settings: 10 μmol/L

T3 sequence (Q08397 96-574): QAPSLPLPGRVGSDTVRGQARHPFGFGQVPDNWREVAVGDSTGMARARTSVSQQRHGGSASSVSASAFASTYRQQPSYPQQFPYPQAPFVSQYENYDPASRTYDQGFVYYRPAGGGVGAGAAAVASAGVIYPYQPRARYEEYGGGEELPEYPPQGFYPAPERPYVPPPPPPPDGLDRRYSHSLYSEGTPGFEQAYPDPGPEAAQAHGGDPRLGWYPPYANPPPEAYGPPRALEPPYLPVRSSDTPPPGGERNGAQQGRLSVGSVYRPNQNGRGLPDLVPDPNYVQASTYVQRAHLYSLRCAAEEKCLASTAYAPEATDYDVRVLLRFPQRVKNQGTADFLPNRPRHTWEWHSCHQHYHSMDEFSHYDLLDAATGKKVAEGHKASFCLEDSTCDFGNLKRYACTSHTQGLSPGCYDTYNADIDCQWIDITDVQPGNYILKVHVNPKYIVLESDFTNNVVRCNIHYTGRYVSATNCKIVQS
T2 sequence (P28300 169-417): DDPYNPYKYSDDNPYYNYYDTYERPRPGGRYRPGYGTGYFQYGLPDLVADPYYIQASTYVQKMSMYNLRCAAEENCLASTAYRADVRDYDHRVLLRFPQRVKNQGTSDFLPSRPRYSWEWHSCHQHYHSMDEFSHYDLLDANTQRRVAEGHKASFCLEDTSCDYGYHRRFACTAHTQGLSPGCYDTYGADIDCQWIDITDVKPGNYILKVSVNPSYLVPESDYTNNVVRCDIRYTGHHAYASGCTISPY
Nicotinic Acetylcholine α1, Bungarotoxin, sequence (Q07001 22-517): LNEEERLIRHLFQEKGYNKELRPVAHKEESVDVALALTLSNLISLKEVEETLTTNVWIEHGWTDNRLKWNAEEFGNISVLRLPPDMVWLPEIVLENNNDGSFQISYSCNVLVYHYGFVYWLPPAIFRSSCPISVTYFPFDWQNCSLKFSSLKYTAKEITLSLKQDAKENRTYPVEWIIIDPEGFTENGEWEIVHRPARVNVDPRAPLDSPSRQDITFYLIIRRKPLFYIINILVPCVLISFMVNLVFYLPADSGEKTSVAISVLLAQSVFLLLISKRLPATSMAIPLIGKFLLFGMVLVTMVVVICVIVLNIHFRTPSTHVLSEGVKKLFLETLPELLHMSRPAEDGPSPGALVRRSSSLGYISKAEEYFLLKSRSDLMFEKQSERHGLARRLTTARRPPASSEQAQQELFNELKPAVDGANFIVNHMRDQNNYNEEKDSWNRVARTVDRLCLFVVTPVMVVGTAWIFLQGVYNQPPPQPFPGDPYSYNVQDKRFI
Nicotinic Acetylcholine α1, Bungarotoxin, sequence (P02708 21-457): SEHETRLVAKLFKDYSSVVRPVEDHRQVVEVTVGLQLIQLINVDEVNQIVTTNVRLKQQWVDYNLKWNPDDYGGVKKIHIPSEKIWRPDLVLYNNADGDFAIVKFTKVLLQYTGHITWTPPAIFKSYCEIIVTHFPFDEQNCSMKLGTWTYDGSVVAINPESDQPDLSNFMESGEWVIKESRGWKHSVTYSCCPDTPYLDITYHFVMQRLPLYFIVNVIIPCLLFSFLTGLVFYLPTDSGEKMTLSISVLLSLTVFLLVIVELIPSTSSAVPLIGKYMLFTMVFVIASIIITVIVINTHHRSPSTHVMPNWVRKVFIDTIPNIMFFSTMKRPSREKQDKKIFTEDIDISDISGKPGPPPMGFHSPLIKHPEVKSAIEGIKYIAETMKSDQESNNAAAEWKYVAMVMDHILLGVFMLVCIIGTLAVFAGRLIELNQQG
Nicotinic Acetylcholine α1, Bungarotoxin, sequence (P07510 23-517): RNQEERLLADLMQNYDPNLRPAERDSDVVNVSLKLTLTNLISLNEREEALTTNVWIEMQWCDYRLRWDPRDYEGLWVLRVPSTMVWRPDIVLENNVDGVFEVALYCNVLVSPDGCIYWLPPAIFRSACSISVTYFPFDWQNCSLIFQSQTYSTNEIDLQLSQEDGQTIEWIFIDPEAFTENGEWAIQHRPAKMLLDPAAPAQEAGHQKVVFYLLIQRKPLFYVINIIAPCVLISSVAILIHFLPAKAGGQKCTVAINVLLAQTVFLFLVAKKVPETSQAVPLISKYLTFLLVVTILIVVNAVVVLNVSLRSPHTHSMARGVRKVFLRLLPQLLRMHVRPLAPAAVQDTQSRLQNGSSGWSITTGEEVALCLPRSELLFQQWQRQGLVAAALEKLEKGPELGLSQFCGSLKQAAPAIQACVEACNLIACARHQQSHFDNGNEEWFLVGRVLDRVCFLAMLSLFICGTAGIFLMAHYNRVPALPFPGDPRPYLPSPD
Nicotinic Acetylcholine α1, Bungarotoxin, sequence (P11230 24-501, further chain): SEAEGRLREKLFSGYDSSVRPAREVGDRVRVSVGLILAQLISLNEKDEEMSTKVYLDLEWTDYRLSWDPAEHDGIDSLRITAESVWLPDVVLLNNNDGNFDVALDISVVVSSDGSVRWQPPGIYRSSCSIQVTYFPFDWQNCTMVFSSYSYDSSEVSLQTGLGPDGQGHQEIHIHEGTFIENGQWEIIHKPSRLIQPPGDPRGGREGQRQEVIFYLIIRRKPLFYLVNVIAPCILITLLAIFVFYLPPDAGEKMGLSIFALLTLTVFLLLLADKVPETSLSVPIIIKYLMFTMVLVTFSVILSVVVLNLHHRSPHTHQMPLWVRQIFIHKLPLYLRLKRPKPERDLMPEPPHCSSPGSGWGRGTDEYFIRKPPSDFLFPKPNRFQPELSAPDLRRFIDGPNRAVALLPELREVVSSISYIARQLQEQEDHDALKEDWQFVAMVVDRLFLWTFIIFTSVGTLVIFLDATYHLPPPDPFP
Potassium Channel [KATP], sequence (Q09427 whole entry): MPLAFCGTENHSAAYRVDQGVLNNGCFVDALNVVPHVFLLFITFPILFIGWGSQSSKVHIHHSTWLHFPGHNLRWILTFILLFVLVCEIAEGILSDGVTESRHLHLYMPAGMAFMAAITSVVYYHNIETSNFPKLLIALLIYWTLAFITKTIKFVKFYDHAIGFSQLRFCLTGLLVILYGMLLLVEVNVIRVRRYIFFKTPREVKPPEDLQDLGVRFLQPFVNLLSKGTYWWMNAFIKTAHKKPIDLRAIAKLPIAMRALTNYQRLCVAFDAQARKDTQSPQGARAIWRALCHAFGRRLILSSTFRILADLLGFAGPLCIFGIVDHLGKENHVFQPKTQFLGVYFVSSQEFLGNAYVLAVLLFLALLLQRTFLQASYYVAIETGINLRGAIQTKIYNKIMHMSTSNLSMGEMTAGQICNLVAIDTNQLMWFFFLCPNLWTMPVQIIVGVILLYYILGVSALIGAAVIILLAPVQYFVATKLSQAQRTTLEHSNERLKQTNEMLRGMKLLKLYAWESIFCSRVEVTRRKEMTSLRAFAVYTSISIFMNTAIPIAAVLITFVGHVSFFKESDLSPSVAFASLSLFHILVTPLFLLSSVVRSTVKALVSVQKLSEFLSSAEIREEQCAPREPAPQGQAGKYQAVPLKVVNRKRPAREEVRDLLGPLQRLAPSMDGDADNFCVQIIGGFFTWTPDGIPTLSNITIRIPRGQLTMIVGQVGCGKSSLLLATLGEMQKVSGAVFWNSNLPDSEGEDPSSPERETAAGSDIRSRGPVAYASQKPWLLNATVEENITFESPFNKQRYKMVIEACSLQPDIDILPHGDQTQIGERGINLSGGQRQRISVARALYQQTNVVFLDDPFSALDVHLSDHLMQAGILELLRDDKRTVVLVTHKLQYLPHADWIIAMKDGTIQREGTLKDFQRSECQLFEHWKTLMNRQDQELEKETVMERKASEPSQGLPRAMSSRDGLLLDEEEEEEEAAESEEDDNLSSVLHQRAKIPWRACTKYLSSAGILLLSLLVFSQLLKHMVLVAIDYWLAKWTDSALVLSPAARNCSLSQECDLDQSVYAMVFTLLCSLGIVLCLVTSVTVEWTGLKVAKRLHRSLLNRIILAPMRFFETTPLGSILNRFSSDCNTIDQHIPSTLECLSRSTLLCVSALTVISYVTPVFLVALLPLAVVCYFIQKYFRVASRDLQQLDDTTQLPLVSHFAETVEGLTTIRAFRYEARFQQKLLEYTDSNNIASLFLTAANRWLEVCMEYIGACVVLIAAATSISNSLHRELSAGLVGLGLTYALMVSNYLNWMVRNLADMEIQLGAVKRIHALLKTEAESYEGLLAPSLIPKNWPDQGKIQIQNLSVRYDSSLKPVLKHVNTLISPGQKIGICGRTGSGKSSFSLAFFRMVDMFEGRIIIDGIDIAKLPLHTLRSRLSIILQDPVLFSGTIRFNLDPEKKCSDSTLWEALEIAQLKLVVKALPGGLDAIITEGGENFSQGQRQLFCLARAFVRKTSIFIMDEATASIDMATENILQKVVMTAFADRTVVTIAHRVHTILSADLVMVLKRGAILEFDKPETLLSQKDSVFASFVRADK
Adrenergic β2, sequence (P07550 whole entry): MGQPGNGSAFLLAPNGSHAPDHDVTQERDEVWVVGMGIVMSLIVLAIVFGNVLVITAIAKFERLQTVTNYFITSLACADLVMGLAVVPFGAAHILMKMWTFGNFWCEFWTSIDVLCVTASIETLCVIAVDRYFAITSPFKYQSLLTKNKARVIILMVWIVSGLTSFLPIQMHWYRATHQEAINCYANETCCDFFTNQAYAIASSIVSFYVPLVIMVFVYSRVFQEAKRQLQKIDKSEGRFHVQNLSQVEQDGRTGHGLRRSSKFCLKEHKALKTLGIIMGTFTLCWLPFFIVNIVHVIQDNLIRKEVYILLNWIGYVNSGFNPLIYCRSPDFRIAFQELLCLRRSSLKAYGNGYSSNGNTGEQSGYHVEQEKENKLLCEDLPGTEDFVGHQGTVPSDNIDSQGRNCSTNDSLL

Cc1c(-c2cccc(S(=O)(=O)N(C)C)c2)c2ncccc2n1C/C(F)=C/CN.Cl.Cl [PXS-5153A]
crosslink formation DHLNL, HLNL, PYD, DPD (LOXL2): prevented all crosslink formation | IC50 (Native human LOX): 1.79 µM | pIC50 ± SD (Native human LOX): 5.7 ± 0.16 | % inhibition [1]: 2% | % inhibition (Potassium Channel [KATP]): 8% | % inhibition (Adrenergic β2): -5% | IC50 (Recombinant human LOXL1): 1.41 µM | pIC50 ± SD (Recombinant human LOXL1): 5.8 ± 0.23 | % inhibition (Nicotinic Acetylcholine): 16%

— article PMC6378217, “The lysyl oxidase like 2/3 enzymatic inhibitor, PXS‐5153A, reduces crosslinks and ameliorates fibrosis” (Journal of Cellular and Molecular Medicine, 2018)
